The text below walks through data of patent US20240398805A1, “QUINAZOLINE DERIVED COMPOUNDS AS EGFR INHIBITORS AND THEIR USES THEREOF” (ACCUTAR BIOTECHNOLOGY INC., priority 2021, published 2024).

Holding throughout (assay type): cell-based
The test system of one test is A431 cells. Kind of test: Cell growth inhibition (CellTiter-Glo, 3 days) in A431. To be noted: Homo sapiens, A-431, 72 h, 3 days after administration. How it is done: (§1) 2. Cell Growth Inhibition for HCC827, HCC827-SVD, HCC827-ASV, HCC827-YVMA and A431.
(§2) HCC827(ATCC), HCC827-SVD, HCC827-ASV, HCC827-YVMA were seeded in 96-well plates at 5000 cells/well in 90 μl of RPMI growth medium containing 10% FBS and 1% Penicillin Streptomycin. A431 (ATCC) cells were seed in 96-well plates at 5000 cells/well in 90 μl of DMEM growth medium containing 10% FBS and 1% Penicillin Streptomycin. Cells were incubated at 3700 overnight. The following day, the test compound was administered to the cells by using 1 Ox compound stock solution prepared in growth medium at various concentrations. After administration of the compound, cells were then incubated at 3700 for 3 days. Before CeIlTiter-Glo assay, the plates were equilibrated at room temperature for approximately 10 minutes. 100 ul of CelTiter-Glo® Reagent (Promega) was added to each well. The plates were then incubated at room temperature for 10 minutes and luminescence was recorded by EnSpire plate reader (PerkinElmer).
On the technique in general: Cellular ATP, detected with luciferase, serves as a proxy for viable cell number.

In test [1] the test system is HCC827-YVMA cells (human ERBB2 exon20 insertion mutant A775_G776ins YVMA). Kind of test: Cell growth inhibition (CellTiter-Glo, 3 days) in HCC827-YVMA. Conditions: 72 h, 3 days after administration.
From the text: (§3) 1. Preparation of HCC827-SVD, HCC827-ASV and HCC827-YVMA Cell Lines
(§4) HCC827-ASV and HCC827-YVMA cell lines were generated in the similar approach as HCC827-SVD except that HCC827 cells (ATCC) were first transduced with lentiviral particles expressing codon-optimized human EGFR exon 20 insertion mutant A769_D770insASV and human ERBB2 exon20 insertion mutant A775_G776ins YVMA, respectively.
as §1, §2

The subject of test [2] is HCC827-SVD cells (human EGFR exon 20 insertion mutant D770_N771 insSVD). Kind of test: Cell growth inhibition (CellTiter-Glo, 3 days) in HCC827-SVD. To be noted: 72 h, 3 days after administration. Here is the method:
as §3
HCC827-SVD cell line were generated by first transducing HCC827 cells (ATCC) with lentiviral particles expressing codon-optimized human EGFR exon 20 insertion mutant D770_N771 insSVD, and then selecting under 5 μg/ml purimycin treatment for a week.
The resulting cells were further transduced with lentiviral particles carrying EGFR sgRNA and CAS9 to knockout the endogenous alleles of EGFR, and then selected under 500 μg/ml hygromycin B treatment for two weeks. Single clone was subsequently generated by limiting dilution approach. Endogenous EGFR knockout was confirmed by Sanger sequencing of cell genomic DNA and expression of exogenous mutant EGFR was verified by Western blot analysis.
as §1, §2

For a further test, the system named is HCC827 cells. Kind of test: Cell growth inhibition (CellTiter-Glo, 3 days) in HCC827. Conditions: Homo sapiens, 72 h, 3 days after administration. How it is done:
as §1, §2

Test [3] deals with HCC827-ASV cells (human EGFR exon 20 insertion mutant A769_D770insASV). Kind of test: Cell growth inhibition (CellTiter-Glo, 3 days) in HCC827-ASV. Conditions: 72 h, 3 days after administration.
From the text: as §3, §4, §1, §2

As for `C=CC(=O)N1CCC(Nc2cc3c(Nc4ccc(Oc5ccnc(N6CCNCC6)c5)cc4F)ncnc3cc2OC)CC1` [Example 123, 1-(4-((4-((2-fluoro-4-((2-(piperazin-1-yl)pyridin-4-yl)oxy)phenyl)amino)-7-methoxyquinazolin-6-yl)amino)piperidin-1-yl)prop-2-en-1-one], the GI50 – broadly, the concentration at which growth is held to half of that of the control – with A431 cells was not below 1000 nM; in test [1], 600 to 1000 nM; in test [2] it was 300 to 600 nM; in the test on HCC827 cells, not below 1000 nM; in test [3], 300 to 600 nM.

For the compound `C=CC(=O)N1CCC(Nc2cc3c(Nc4ccc(Oc5ccn(-c6cnc(C)cc6C)n5)cc4F)ncnc3cc2OC)CC1` [Example 37, 1-(4-((4-((4-((1-(4,6-dimethylpyridin-3-yl)-1H-pyrazol-3-yl)oxy)-2-fluorophenyl)amino)-7-methoxyquinazolin-6-yl)amino)piperidin-1-yl)prop-2-en-1-one], the GI50 is 300 to 600 nM in the test on A431 cells; less than 30 nM in test [1]; less than 30 nM in test [2]; 30 to 60 nM in the test with HCC827 cells; less than 30 nM in test [3].

For `C=CC(=O)N1CCC(Nc2cc3c(Nc4ccc(Oc5ccnc(N6CCC(C)(F)C6)c5)cc4F)ncnc3cc2OC)CC1` (stereo not drawn) [Example 265, 1-(4-((4-((2-fluoro-4-((2-(3-fluoro-3-methylpyrrolidin-1-yl)pyridin-4-yl)oxy)phenyl)amino)-7-methoxyquinazolin-6-yl)amino)piperidin-1-yl)prop-2-en-1-one], the GI50 was 100 to 300 nM in the test with A431 cells; less than 30 nM in test [1]; less than 30 nM in test [2]; 30 to 60 nM in the test on HCC827 cells; less than 30 nM in test [3].

For `C=CC(=O)N1CCC(Nc2cc3c(Nc4ccc(Oc5ccn(-c6cnc(C)c(F)c6)n5)c(Cl)c4)ncnc3cc2OC)CC1` [Example 20, 1-(4-((4-((3-chloro-4-((1-(5-fluoro-6-methylpyridin-3-yl)-1H-pyrazol-3-yl)oxy)phenyl)amino)-7-methoxyquinazolin-6-yl)amino)piperidin-1-yl)prop-2-en-1-one], the GI50 fell in the range of 100 to 300 nM in the test with A431 cells; 100 to 300 nM in test [1]; 100 to 300 nM in test [2]; 30 to 60 nM in the test on HCC827 cells; 60 to 100 nM in test [3].

With `C=CC(=O)N1CCC(Nc2cc3c(Nc4ccc(Oc5ccnc(N6CC[C@H](C#N)C6)c5)cc4F)ncnc3cc2OC)CC1` [Example 259, (S)-1-(4-(4-((6-((1-acryloylpiperidin-4-yl)amino)-7-methoxyquinazolin-4-yl)amino)-3-fluorophenoxy)pyridin-2-yl)pyrrolidine-3-carbonitrile], the GI50 in the test on A431 cells was not below 1000 nM; in test [1] it was less than 30 nM; in test [2], less than 30 nM; in the test on HCC827 cells it was 60 to 100 nM; in test [3], less than 30 nM.

For the compound `C=CC(=O)N1CCC(Nc2cc3c(Nc4ccc(Oc5ccnc(N6C[C@H](OC)[C@H](OC)C6)c5)cc4F)ncnc3cc2OC)CC1` [Example 189, 1-(4-((4-((4-((2-((3R,4S)-3,4-dimethoxypyrrolidin-1-yl)pyridin-4-yl)oxy)-2-fluorophenyl)amino)-7-methoxyquinazolin-6-yl)amino)piperidin-1-yl)prop-2-en-1-one], the GI50 with A431 cells is not below 1000 nM; in test [1] it was less than 30 nM; in test [2], less than 30 nM; in the test on HCC827 cells, 300 to 600 nM; in test [3] it was less than 30 nM.

In the case of `C=CC(=O)N1CCC(Nc2cc3c(Nc4ccc(Oc5ccnc(N6CC[C@H](O)C6)c5)cc4F)ncnc3cc2OC)CC1` [Example 174, (S)-1-(4-((4-((2-fluoro-4-((2-(3-hydroxypyrrolidin-1-yl)pyridin-4-yl)oxy)phenyl)amino)-7-methoxyquinazolin-6-yl)amino)piperidin-1-yl)prop-2-en-1-one], the GI50 in the test with A431 cells was not below 1000 nM; in test [1] it was 100 to 300 nM; in test [2] it was 100 to 300 nM; in the test with HCC827 cells it was 600 to 1000 nM; in test [3], 100 to 300 nM.

With `C=CC(=O)N1CCC(Nc2cc3c(Nc4ccc(Oc5ccnc(N6CCN[C@H](C)C6)c5)cc4F)ncnc3cc2OC)CC1` [Example 224, (R)-1-(4-((4-((2-fluoro-4-((2-(3-methylpiperazin-1-yl)pyridin-4-yl)oxy)phenyl)amino)-7-methoxyquinazolin-6-yl)amino)piperidin-1-yl)prop-2-en-1-one], the GI50 in the test with A431 cells was not below 1000 nM; in test [1] it was 600 to 1000 nM; in test [2], 300 to 600 nM; with HCC827 cells it was not below 1000 nM; in test [3] it was 600 to 1000 nM.

For `C=CC(=O)N1CCC(Nc2cc3c(Nc4ccc(Oc5ccnc(-c6ccccc6)c5)cc4F)ncnc3cc2OC)CC1` [Compound 233, 1-(4-((4-((2-fluoro-4-((2-phenylpyridin-4-yl)oxy)phenyl)amino)-7-methoxyquinazolin-6-yl)amino)piperidin-1-yl)prop-2-en-1-one], the GI50 in the test on A431 cells is not below 1000 nM; in test [1], less than 30 nM; in test [2] it was 30 to 60 nM; in the test with HCC827 cells, 60 to 100 nM; in test [3] it was less than 30 nM.

In the case of `C=CC(=O)N1CCC(Nc2cc3c(Nc4ccc(Oc5ccn(-c6cnc(C)c(Cl)c6)n5)cc4F)ncnc3cc2OC)CC1` [Compound 10, 1-(4-((4-((4-((1-(5-chloro-6-methylpyridin-3-yl)-1H-pyrazol-3-yl)oxy)-2-fluorophenyl)amino)-7-methoxyquinazolin-6-yl)amino)piperidin-1-yl)prop-2-en-1-one], the 50% growth inhibitory concentration (GI50) in the test on A431 cells was 300 to 600 nM; in test [1], less than 30 nM; in test [2] it was less than 30 nM; with HCC827 cells it was 30 to 60 nM; in test [3], less than 30 nM.

Take `C=CC(=O)N1CCC(Nc2cc3c(Nc4ccc(Oc5ccnc(N6C[C@@H]7OCCO[C@@H]7C6)n5)cc4F)ncnc3cc2OC)CC1` [Example 257, 1-(4-((4-((2-fluoro-4-((2-((4aR,7aS)-hexahydro-6H-[1,4]dioxino[2,3-c]pyrrol-6-yl)pyrimidin-4-yl)oxy)phenyl)amino)-7-methoxyquinazolin-6-yl)amino)piperidin-1-yl)prop-2-en-1-one]: the GI50 with A431 cells was 600 to 1000 nM; in test [1], less than 30 nM; in test [2], less than 30 nM; in the test with HCC827 cells it was 60 to 100 nM; in test [3] it was less than 30 nM.

Regarding `C=CC(=O)N1CCC(Nc2cc3c(Nc4ccc(Oc5ccnc(-c6ccncc6)c5)cc4F)ncnc3cc2OC)CC1` [Example 238, 1-(4-((4-((4-([2,4′-bipyridin]-4-yloxy)-2-fluorophenyl)amino)-7-methoxyquinazolin-6-yl)amino)piperidin-1-yl)prop-2-en-1-one], the GI50 in the test with A431 cells was not below 1000 nM; in test [1], less than 30 nM; in test [2], less than 30 nM; with HCC827 cells, 100 to 300 nM; in test [3], less than 30 nM.

Regarding `C=CC(=O)N1CCC(Nc2cc3c(Nc4ccc(Oc5ccnc(N6CCS(=O)(=O)CC6)c5)cc4F)ncnc3cc2OC)CC1` [Example 112, 1-(4-((4-((4-((2-(1,1-dioxidothiomorpholino)pyridin-4-yl)oxy)-2-fluorophenyl)amino)-7-methoxyquinazolin-6-yl)amino)piperidin-1-yl)prop-2-en-1-one], the GI50 in the test on A431 cells was not below 1000 nM; in test [1], 600 to 1000 nM; in test [2] it was 100 to 300 nM; with HCC827 cells it was not below 1000 nM; in test [3], 300 to 600 nM.

As to `C=CC(=O)N1CCC(Nc2cc3c(Nc4ccc(Oc5ccnc(N6CC(C)(C)C6)c5)cc4F)ncnc3cc2OC)CC1` [Example 202, 1-(4-((4-((4-((2-(3,3-dimethylazetidin-1-yl)pyridin-4-yl)oxy)-2-fluorophenyl)amino)-7-methoxyquinazolin-6-yl)amino)piperidin-1-yl)prop-2-en-1-one], the GI50 was 100 to 300 nM in the test on A431 cells; less than 30 nM in test [1]; less than 30 nM in test [2]; less than 30 nM with HCC827 cells; less than 30 nM in test [3].

In the case of `C=CC(=O)N1CCC(Nc2cc3c(Nc4ccc(Oc5ccnc(N6CCC[C@@H](OC)C6)c5)cc4F)ncnc3cc2OC)CC1` [Example 164, (R)-1-(4-((4-((2-fluoro-4-((2-(3-methoxypiperidin-1-yl)pyridin-4-yl)oxy)phenyl)amino)-7-methoxyquinazolin-6-yl)amino)piperidin-1-yl)prop-2-en-1-one], the GI50 in the test with A431 cells is 600 to 1000 nM; in test [1] it was less than 30 nM; in test [2], less than 30 nM; in the test on HCC827 cells, 300 to 600 nM; in test [3] it was less than 30 nM.
